From patent US8392127B2, “Methods and gene expression signature for assessing growth factor signaling pathway regulation status” (Merck Sharp & Dohme Corp., priority 2008, dated 2013)
Entries after “also recorded” stand apart in the source; their conditions may differ.

Columns and labels:
SXF-1186 = assay: Patient-derived tumor xenograft growth inhibition (T/C); assay type: in vivo, NMRI female nu/nu mice; conditions: 500 μg/mouse ip once weekly
[1] = tested on: growth factor signaling pathway signature in LXFA-629; assay: Growth factor signaling pathway signature score post/pre-dose ratio in xenografts; assay type: in vivo, NMRI female nu/nu mice; conditions: 24 hours after a single treatment, 500 μg/mouse ip
Method: (§1) Animals of Groups 3 and 4 were sacrificed for sample collection when the tumors had volumes between 400 and 600 mm^3 and 24 hours after a single treatment with either the control vehicle (Group 3) or IGF1R (Group 4). Tumors were cut into two parts, snap frozen in liquid nitrogen and stored at −80° C. RNA was harvested from both vehicle-treated and MK0646-treated samples as previously described for hybridization to DNA oligonucleotide arrays.
(§2) Regulation of the growth factor signaling pathway signature by MK-0646 was assessed by comparing mean gene expression profiles of MK0646 treated samples for each xenograft to the mean gene expression profile of the vehicle treated samples. The log(10) ratio of expression in the MK-0646 treated samples relative to the vehicle treated samples was calculated for every probe on the microarray. The growth factor signaling pathway signature score was calculated as the mean log(10) ratio of the genes in the “up” arm of the signature (see Table 5a) minus the mean log(10) ratio of the genes in the “down” arm of the signature (see Table 5b). A post/pre-dose ratio of the growth factor signaling pathway signature score was then calculated and compared to the tumor inhibition T/C ratio for each xenograft (see FIG. 34).

[2] = tested on: growth factor signaling pathway signature in MAXF-713; assay: as above; assay type: in vivo, NMRI female nu/nu mice; conditions: 24 hours after a single treatment, 500 μg/mouse ip
Method: as §1, §2

OVXF-899 = assay: Patient-derived tumor xenograft growth inhibition (T/C); assay type: in vivo, NMRI female nu/nu mice; conditions: 500 μg/mouse ip once weekly
Excerpt: (§3) NMRI female nu/nu mice were subcutaneously implanted with patient-derived tumor xenografts: lung adenocarcinoma LXFA 526, LXFA 629, LXFA 677, LXFA 749 and LXFA 1012; squamous cell lung carcinoma LXFE, 211, LXFE 397, LXFE 409 and LXFE 1422; small cell lung cancer LXFS 538, LXFS 573 and LXFS 615; colorectal carcinoma CXF 94LX, CXF 158, CXF 280, CXF 975, CXF 1103 and CXF 1729; renal cell carcinoma RXF 393, RXF 423, RXF 631 and RXF 1220; gastric cancer GXF 97, GXF 251 and GXF 281; ovarian cancer OVXF 550, OVXF 899, OVXF 1023, OVXF 1353 and OVXF 1544 (Oncotest GmbH, Freiburg, Germany). All tumor xenografts were derived from surgical specimen from human patients and directly transplanted into nude mice for propagation. Tumor xenografts were passaged in nude mice until establishment of a stable growth pattern. Master stocks of early passage xenografts were frozen in liquid nitrogen. A particular master stock batch is typically only used for about 20 further passages. Tumor fragments were obtained from xenografts in serial passage in nude mice. After removal of tumors from donor mice, they were cut into fragments (1-2 mm diameter) and placed RPMI 1640 culture medium until subcutaneous implantation. Recipient mice were anesthetized by inhalation of isoflurane. Tumor fragments (1-2 per mouse) were transplanted subcutaneously into the backs of recipient mice. Animals carrying at least one tumor of appropriate size (mean tumor diameter 6-8 mm, minimum acceptable tumor diameter 5 mm) were considered for randomization into treatment and vehicle control groups.
(§4) MK-0646 IGF1R monoclonal antibody (U.S. Pat. No. 7,241,444) was diluted to a final dosing concentration of 2 mg/mL with 20 mM—L Histidine, 150 mM NaCl, 0.5% PS—80 w/w pH 6.5 at ratio of 1:5.65. The diluted treatment solution was administered at an application volume of 250 μl/mouse for the dose level of 500 μg/mouse. The control vehicle was 20 mM-L Histidine, 150 mM NaCl, 0.5% PS-80 w/w, pH6.5. Vehicle was administered at 250 μl/mouse. IGF1R monoclonal antibody and control vehicle were injected intraperitoneally. Test and control mice were injected once a week on the same days. The number of injections ranged from 2 to 7, depending on the duration of the experiment. Experiments were terminated when one of the limits set by the German animal regulations was met.
(§5) Each experiment consisted of a vehicle control group (Group 1) receiving 20 mM-L Histidine, 150 mM NaCl, 0.5% PS-80 w/w, pH6.5 at 250 μL/mouse ip once weekly and one group treated with IGF-1R at 500 μg/mouse ip once weekly (Group 2). For sample collection purposes each experiment also comprised two groups (Groups 3 and 4) receiving a single therapy either with the vehicle or with IGF-1R at the same dose levels. According to the study protocol the group size in the efficacy groups (Groups 1 and 2) was 7 mice while the sample collection groups (Group 3 and 4) contained 3 nude mice each. In the experiments with CXF 1103 and RXF 631 bearing mice the efficacy groups contained 8 mice and group size in the efficacy groups of the experiment with LXFE 211 bearing nude mice was 9. […]
(§6) Relative volumes of individual tumors (RTVs) for Day x were calculated by dividing the individual tumor volume on Day X (Tx) by the individual volume of the same tumor on Day 0 (T0) multiplied by 100%.
(§7) [formula] Group tumor volumes were expressed as the median RTV of all tumors in a group (group median RTV). […]

LXFA-629 = assay: as above; assay type: in vivo, NMRI female nu/nu mice; conditions: 500 μg/mouse ip once weekly
Excerpt: as §3, §4, §5, §6, §7

CSF-280 = assay: as above; assay type: in vivo, NMRI female nu/nu mice; conditions: 500 μg/mouse ip once weekly
Excerpt: as §3, §4, §5, §6, §7

CSF-1729 = assay: as above; assay type: in vivo, NMRI female nu/nu mice; conditions: 500 μg/mouse ip once weekly
Excerpt: as §3, §4, §5, §6, §7

CSF-94LX = assay: as above; assay type: in vivo, NMRI female nu/nu mice; conditions: 500 μg/mouse ip once weekly
Excerpt: as §3, §4, §5, §6, §7

MAXF-713 = assay: as above; assay type: in vivo, NMRI female nu/nu mice; conditions: 500 μg/mouse ip once weekly
MYC signature = MYC signature (Bild et al.) in response to inhibition of oncology targets; assay type: cell-based; conditions: cancer cell lines of FIG. 6C
Method: FIG. 6. Relationship of AKT and MYC signatures. The AKT and MYC signature scores are highly correlated in the (A) colon (r=0.81) and (B) breast (r=0.82) tumor atlas datasets. The AKT signature score was calculated as described previously. […] (C) The Bild et al. MYC signature is inhibited by small molecule inhibitors of AKT, cMET and FGFR2, but not by taxol or inhibition of KSP. […] Experiments are listed on the left side of the heatmap (HCT116: colon cancer cells, LoVo: colon cancer cells, GTL-16: gastric cancer cells, EBC-1: lung cancer cells, KATO III: gastric cancer cells, SUM52: breast cancer cells). The drug (taxol) or drug target (all others) profiled in each experiment is indicated along the right side of the heatmap.
Bild et al. published a gene expression signature that was regulated in response to cMYC (also known as MYC) overexpression in primary human mammary epithelial cells (2006, Nature, 439:353-357). This MYC signature was analyzed in the context of tumor expression atlas data. The tumor expression atlas is a collection of gene expression data measured in several different types of human tumors, including breast, colon, gastric, kidney, and lung tumors. […] Therefore, we assessed the regulation of the MYC signature in response to inhibition of AKT and other oncology targets. […]

ERBB3 = assay: mRNA expression of growth factor receptors after growth factor treatment (microarray); assay type: cell-based, human; conditions: MCF7 and HT29 cells; 100 ng/ml (heregulin 30 ng/ml)
Method: (§8) FIG. 29. Negative feedback induced by growth factors. The data presented represents the effect of each growth factor on the mRNA expression of (A) EGFR, (B) ERBB3, (C) INSR, or (D) a recently published signature of aberrant PTEN activity. The Y-axes represent the log(10) ratio of expression relative to vehicle. […] The X-axes represent the time point after growth factor addition.
(§9) MCF-7 and HT-29 cell lines were seeded in 6-well plates to achieve 40-50% confluence at the time of growth factor addition. Cells were serum starved for 24 hours in 0.2% charcoal stripped serum, and growth factors were added at 100 ng/ml (EGF, IGF, insulin, b-FGF) or 30 ng/ml (heregulin). Concentrations of growth factors were chosen to give maximal activation of growth factor receptors as judged by receptor auto-phosphorylation. Activation of growth factor receptor pathways after growth factor addition was confirmed by Western analysis of phosphorylated MAPK and phosphorylated AKT in a separate plate of cells (data not shown). Cells were harvested at 30 minutes, 2 hours, 6 hours, 18 hours, and 24 hours after growth factor addition. DMSO (vehicle) treated cells were also harvested at each time point. RNA was prepared using RLT lysis reagent Qiagen spin columns according to manufacturer instructions.
(§10) For growth factor and AKT inhibitor treated cells, total RNA was isolated from cell lines and converted to fluorescently labeled cRNA that was hybridized to DNA oligonucleotide microarrays as described previously (Hughes et al., 2001, Nat. Biotechnol. 19:342-347; Marton et al., 1998, Nat. Med. 4:1293-1301). Briefly, 4 μg of total RNA from each treated sample was used to synthesize dsDNA through reverse transcription. cRNA was produced by in vitro transcription and labeled post-synthetically with Cy3 or Cy5. cRNA derived from growth factor or AKT inhibitor treated cells (experimental sample) was hybridized against cRNA derived from vehicle treated samples (reference sample). Two hybridizations were done with each cRNA sample pair using fluorescent dye reversal strategy. For growth factor treated cells, microarrays contained 23,880 probes representing genes or expressed sequence tags (GEO platform GPL2029). For AKT inhibitor treated cells, microarrays contained 23,658 probes representing genes or expressed sequence tags (GEO platform GPL3991). Probe sequences were chosen to maximize gene specificity and minimize the 3′-replication bias inherent in reverse transcription of mRNA. In addition, all microarrays contained approximately 2,000 control probes for quality control purposes. All probes on the microarrays were synthesized in situ with inkjet technology (Agilent Technologies, Palo Alto, Calif.; Hughes et al, 2001, Nat. Biotechnol. 19:342-347). After hybridization, arrays were scanned and fluorescence intensities for each probe were recorded. Ratios of transcript abundance (experimental to control) were obtained following normalization and correction of the array intensity data. Gene expression data was analyzed using Rosetta Resolver gene expression analysis software (version 7.0, Rosetta Biosoftware, Seattle, Wash.) and MATLAB (The MathWorks, Natick, Mass.).
(§11) As such, care should be taken when using mRNA levels of ERBB3 or INSR as a surrogate for activity of signaling through these receptors.

EGFR = assay: as above; assay type: cell-based, human; conditions: MCF7 and HT29 cells; 100 ng/ml (heregulin 30 ng/ml)
Method: as §8, §9, §10, §11

INSR = assay: as above; assay type: cell-based, human; conditions: MCF7 and HT29 cells; 100 ng/ml (heregulin 30 ng/ml)
Method: as §8, §9, §10, §11

MK-0646: IGF1R monoclonal antibody (U.S. Pat. No. 7,241,444)
tumor inhibition (T/C ratio) (SXF-1186): moderate response | growth factor signaling score post/pre-dose ratio [1]: low | growth factor signaling score post/pre-dose ratio [2]: low | tumor inhibition (T/C ratio) (OVXF-899): strong tumor inhibition | tumor inhibition (T/C ratio) (LXFA-629): strong tumor inhibition; also recorded: most tumor inhibition | tumor inhibition (T/C ratio) (CSF-280): moderate response | tumor inhibition (T/C ratio) (CSF-1729): moderate response | tumor inhibition (T/C ratio) (CSF-94LX): strong tumor inhibition | tumor inhibition (T/C ratio) (MAXF-713): strong tumor inhibition; also recorded: most tumor inhibition

CC(=O)O[C@H]1C(=O)[C@@]2(C)[C@H]([C@H](OC(=O)c3ccccc3)[C@]3(O)C[C@H](OC(=O)[C@H](O)[C@@H](NC(=O)c4ccccc4)c4ccccc4)C(C)=C1C3(C)C)[C@]1(OC(C)=O)CO[C@@H]1C[C@@H]2O [taxol]
inhibition of the MYC signature developed by Bild et al. (MYC signature): not inhibited

EGF: growth factor added to cells at 100 ng/ml
ERBB3 mRNA expression (ERBB3): significant down-regulation | EGFR mRNA expression (EGFR): did not result in down-regulation | INSR mRNA expression (INSR): significant down-regulation
